In ChEMBL document CHEMBL1141850, “Glucosidation of betulinic acid by Cunninghamella species” (1999):
Converted amounts (≈) assume the structure as drawn.

Columns and labels:
Type in all cases: functional
Details in all cases: read-out: ED50 (the source's name)
[1] = Cytotoxicity against human MEL1 cells
[2] = Cytotoxicity against human MEL7 cells
[3] = Cytotoxicity against human MEL3 cells
[4] = Cytotoxicity against human MEL2 cells

| Compound | EC50 [1] | EC50 [2] | EC50 [3] | EC50 [4] |
| --- | --- | --- | --- | --- |
| C=C(C)[C@@H]1CC[C@]2(C(=O)O[C@@H]3O[C@H](CO)[C@@H](O)[C@H](O)[C@H]3O)CC[C@]3(C)[C@H](CC[C@@H]4[C@@]5(C)CC[C@H](O)C(C)(C)[C@@H]5CC[C@]43C)[C@@H]12 | > 20 µg/mL | > 20 µg/mL | > 20 µg/mL | > 20 µg/mL |
| C=C(C)[C@@H]1CC[C@]2(C(=O)O)CC[C@]3(C)[C@H](CC[C@@H]4[C@@]5(C)CC[C@H](O)C(C)(C)[C@@H]5CC[C@]43C)[C@@H]12 [BETULINIC ACID] | 1.4 µg/mL (≈ 3.07 µM) | 4.4 µg/mL (≈ 9.63 µM) | 1.8 µg/mL (≈ 3.94 µM) | 1.2 µg/mL (≈ 2.63 µM) |
